Test results: ChEMBL document CHEMBL1159104, “Potent transglutaminase inhibitors, aryl beta-aminoethyl ketones” (Bioorg Med Chem Lett, 2010)

biological target: T1, Protein-glutamine gamma-glutamyltransferase (Cavia porcellus, UniProt Q7M0F8); experiment: Inhibition of guinea pig liver transglutaminase
T1 sequence (Q7M0F8 whole entry): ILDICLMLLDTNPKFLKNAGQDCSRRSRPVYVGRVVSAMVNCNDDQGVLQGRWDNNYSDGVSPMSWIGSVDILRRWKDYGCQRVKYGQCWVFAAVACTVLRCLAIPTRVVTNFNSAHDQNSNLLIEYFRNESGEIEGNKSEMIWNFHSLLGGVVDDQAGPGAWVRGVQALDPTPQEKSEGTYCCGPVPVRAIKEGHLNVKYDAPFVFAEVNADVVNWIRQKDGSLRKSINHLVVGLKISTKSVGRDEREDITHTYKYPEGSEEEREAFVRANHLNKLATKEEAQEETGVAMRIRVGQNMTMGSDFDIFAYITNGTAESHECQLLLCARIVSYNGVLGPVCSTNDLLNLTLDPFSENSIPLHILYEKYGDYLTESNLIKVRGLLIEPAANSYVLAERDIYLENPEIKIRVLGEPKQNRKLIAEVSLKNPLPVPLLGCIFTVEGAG

IC50	SMILES
10000 nM	CC(C)N(CCO)CCC(=O)c1ccc(F)cc1
22000 nM	O=C(CCN(CCO)CCO)c1ccc2ccccc2c1
800 nM	CCCCN(CCO)CCC(=O)c1ccc(C)o1
6100 nM	CC(C)N(CCO)CCC(=O)c1ccc(C#N)cc1
920 nM	CCc1nccnc1C(=O)CCN(Cc1ccccc1)C(C)C
2700 nM	CCCCN(CCO)CCC(=O)c1cccnc1
3500 nM	O=C(CCN(CCO)CCO)c1ccncc1
2500 nM	CCCCN(CCO)CCC(=O)c1ccncc1
1100 nM	CC(C)(C)N(CCC(=O)c1ccc(F)cc1)Cc1ccccc1
1800 nM	CN(CCC(=O)c1ccco1)Cc1ccccc1
11000 nM	CC(C)(C)N(CCO)CCC(=O)c1ccncc1
2300 nM	Cc1ccc(C(=O)CCN(Cc2ccccc2)C(C)(C)C)o1
320 nM	CC(C)N(CCC(=O)c1ccco1)Cc1ccccc1
2500 nM	O=C(CCN(CCO)Cc1ccccc1)c1ccncc1
1400 nM	CCN(CCC(=O)c1ccncc1)Cc1ccccc1
19000 nM	CCCCN(CCO)CCC(=O)c1cccs1
10000 nM	O=C(CCN(CCO)Cc1ccccc1)c1cccs1
1400 nM	CCCCN(CCO)CCC(=O)c1ccc(Br)s1
100 nM	CC(C)(C)N(CCC(=O)c1ccc(Cl)s1)Cc1ccccc1
420 nM	CCN(CCC(=O)c1ccc(Cl)s1)Cc1ccccc1
17000 nM	CN(CCC(=O)c1ccccn1)Cc1ccccc1
4500 nM	CC(C)(C)N(CCO)CCC(=O)c1ccco1

IC50	SMILES
840 nM	CCCCN(CCO)CCC(=O)c1ccco1
1500 nM	O=C(CCN(CCO)Cc1ccccc1)c1ccc2c(Cl)cccc2c1
2300 nM	CCCCN(CCO)CCC(=O)c1ncc(C)s1
1000 nM	CC(C)(C)N(CCC(=O)c1ccccn1)Cc1ccccc1
1100 nM	CC(C)N(CCC(=O)c1ccccn1)Cc1ccccc1
2600 nM	CC(C)N(CCC(=O)c1ccc(Cc2ccccc2)cc1)Cc1ccccc1
12000 nM	CC(C)(C)N(CCO)CCC(=O)c1ccccn1
5100 nM	O=C(CCN(CCO)CCO)c1ccccn1
5400 nM	CC(C)N(CCO)CCC(=O)c1ccccn1
4900 nM	O=C(CCN(CCO)Cc1ccccc1)c1ccncn1
2700 nM	CC(C)(C)N(CCO)CCC(=O)c1cnccn1
1700 nM	CCCCN(CCO)CCC(=O)c1cnccn1
3600 nM	CC(C)(C)N(CCC(=O)c1ccc(Cc2ccccc2)cc1)Cc1ccccc1
9400 nM	CC(C)N(CCO)CCC(=O)c1cc2ccccc2s1
1400 nM	CC(C)(C)N(CCC(=O)c1nccs1)Cc1ccccc1
1500 nM	O=C(CCN(CCO)Cc1ccccc1)c1cnccn1
8500 nM	O=C(CCN(CCO)Cc1ccccc1)c1nccs1
6900 nM	O=C(CCN(CCO)CCO)c1nccs1
530 nM	CC(C)N(CCC(=O)c1cnccn1)Cc1ccccc1
10000 nM	CC(C)(C)N(CCO)CCC(=O)c1nccs1
7800 nM	CC(C)(C)N(CCO)CCC(=O)c1cccnc1
2300 nM	O=C(CCN(CCO)Cc1ccccc1)c1cccnc1

IC50	SMILES
680 nM	Cc1ccc(C(=O)CCN(CCO)C(C)(C)C)o1
440 nM	CC(C)(C)N(CCC(=O)c1cccs1)Cc1ccccc1
4800 nM	CC(C)N(CCO)CCC(=O)c1ccncc1
10000 nM	CC(C)N(CCC(=O)c1ccc(F)cc1)Cc1ccccc1
830 nM	CC(C)N(CCC(=O)c1ccncc1)Cc1ccccc1
12000 nM	CCCCN(CCO)CCC(=O)c1ccsc1
12000 nM	CCN(CCC(=O)c1ccsc1)Cc1ccccc1
10000 nM	CN(CCC(=O)c1ccsc1)Cc1ccccc1
10000 nM	CC(C)N(CCO)CCC(=O)c1ccccc1
1700 nM	CC(C)N(CCC(=O)c1ccc2c(Cl)cccc2c1)Cc1ccccc1
1400 nM	CC(C)(C)N(CCC(=O)c1ccncc1)Cc1ccccc1
6500 nM	Cc1ccc(C(=O)CCN(CCO)CCO)o1
1000 nM	CN(CCC(=O)c1ccc(Cl)s1)Cc1ccccc1
570 nM	CC(C)(C)N(CCC(=O)c1cnccn1)Cc1ccccc1
4300 nM	CN(CCC(=O)c1nccs1)Cc1ccccc1
1400 nM	Cc1ccc(C(=O)CCN(C)CCO)o1
1300 nM	O=C(CCN(CCO)Cc1ccccc1)c1ccco1
700 nM	CC(C)(C)N(CCC(=O)c1ccc(Cl)cc1)Cc1ccccc1
4300 nM	Cc1ccc(C(=O)CCN(C)Cc2ccccc2)o1
6800 nM	CC(C)(C)N(CCO)CCC(=O)c1cccs1
2600 nM	CCN(CCC(=O)c1nccs1)Cc1ccccc1

Continued, compound first:

SMILES	IC50
CN(CCO)CCC(=O)c1ccsc1	14000 nM
CCN(CCC(=O)c1ccco1)Cc1ccccc1	550 nM
CN(CCC(=O)c1ccc2ccccc2c1)Cc1ccccc1	21000 nM
CC(C)N(CCC(=O)c1nccs1)Cc1ccccc1	3200 nM
O=C(CCN(CCO)CCO)c1ccco1	360 nM
CC(C)(C)N(CCC(=O)c1ccco1)Cc1ccccc1	650 nM
CN(CCC(=O)c1cnccn1)Cc1ccccc1	1200 nM
CCCCN(CCO)CCC(=O)c1ccccn1	10000 nM
CN(CCO)CCC(=O)c1ccncc1	7900 nM
CC(C)N(CCO)CCC(=O)c1cccs1	6500 nM
CC(C)N(CCO)CCC(=O)c1ccc(Cl)s1	5400 nM
CC(C)N(CCO)CCC(=O)c1cnccn1	6900 nM
CCN(CCC(=O)c1ccc(F)cc1)Cc1ccccc1	13000 nM
CC(C)N(CCC(=O)c1ccc2ccccc2c1)Cc1ccccc1	4000 nM
CC(C)N(CCO)CCC(=O)c1ccc2ccccc2c1	16000 nM
CCc1nccnc1C(=O)CCN(CCO)CCO	15000 nM
Cc1ccc(C(=O)CCN(Cc2ccccc2)C(C)C)o1	320 nM
CC(C)N(CCC(=O)c1ccc(Cl)cc1)Cc1ccccc1	1400 nM
CC(C)N(CCO)CCC(=O)c1ccc(Cl)cc1	2200 nM
CN(CCO)CCC(=O)c1cccs1	4000 nM
CCc1nccnc1C(=O)CCN(Cc1ccccc1)C(C)(C)C	1700 nM
O=C(CCN(CCO)Cc1ccccc1)c1ccc(Cl)s1	1500 nM
CC(C)(C)N(CCC(=O)c1ccccc1)Cc1ccccc1	1700 nM
CCN(CCC(=O)c1ccccn1)Cc1ccccc1	2700 nM
CCCCN(CCO)CCC(=O)c1ccc2c(Cl)cccc2c1	1900 nM

SMILES	IC50
Cc1ccc(C(=O)CCN(CCO)C(C)C)o1	420 nM
Cc1ccc(C(=O)CCN(CCO)Cc2ccccc2)o1	6600 nM
CN(CCC(=O)c1ccncc1)Cc1ccccc1	2000 nM
CN(CCO)CCC(=O)c1ccccn1	> 30000 nM
CN(CCO)CCC(=O)c1cnccn1	9900 nM
CC(C)N(CCC(=O)c1ccc(Br)s1)Cc1ccccc1	190 nM
CC(C)(C)N(CCC(=O)c1ccc(Br)s1)Cc1ccccc1	81 nM
CC(C)(C)N(CCC(=O)c1cc2ccccc2s1)Cc1ccccc1	210 nM
CN(CCC(=O)c1ccc(Cc2ccccc2)cc1)Cc1ccccc1	26000 nM
CCN(CCC(=O)c1cnccn1)Cc1ccccc1	670 nM
CC(C)N(CCO)CCC(=O)c1nccs1	16000 nM
CN(CCO)CCC(=O)c1cccnc1	5200 nM
CN(CCO)CCC(=O)c1nccs1	4700 nM
Cc1cnc(C(=O)CCN(C)Cc2ccccc2)s1	1800 nM
O=C(CCN(CCO)CCO)c1cccnc1	3300 nM
CC(C)N(CCO)CCC(=O)c1cccnc1	7400 nM
CN(CCC(=O)c1cccnc1)Cc1ccccc1	4000 nM
O=C(CCN(CCO)Cc1ccccc1)c1ccccc1	11000 nM
CC(C)N(CCC(=O)c1cccs1)Cc1ccccc1	1400 nM
CC(C)N(CCC(=O)c1ccc(C#N)cc1)Cc1ccccc1	590 nM
CC(C)(C)N(CCC(=O)c1cccnc1)Cc1ccccc1	470 nM
CC(C)N(CCC(=O)c1cccnc1)Cc1ccccc1	830 nM
CCN(CCC(=O)c1ccc(C)o1)Cc1ccccc1	2800 nM
CCN(CCC(=O)c1cccs1)Cc1ccccc1	2100 nM
CN(CCC(=O)c1cccs1)Cc1ccccc1	10000 nM

SMILES	IC50
CC(C)N(CCO)CCC(=O)c1ccsc1	11000 nM
O=C(CCN(CCO)CCO)c1cnccn1	1200 nM
O=C(CCN(CCO)Cc1ccccc1)c1ccsc1	12000 nM
CN(CCO)CCC(=O)c1ccco1	1200 nM
O=C(CCN(CCO)CCO)c1ccc(Cl)s1	1900 nM
CC(C)N(CCC(=O)c1ccsc1)Cc1ccccc1	8600 nM
CC(C)(C)N(CCC(=O)c1ccsc1)Cc1ccccc1	11000 nM
CC(C)N(CCC(=O)c1cc2ccccc2s1)Cc1ccccc1	770 nM
CC(C)N(CCC(=O)c1cc(Cl)sc1Cl)Cc1ccccc1	980 nM
CC(C)N(CCO)CCC(=O)c1cc(Cl)sc1Cl	2500 nM
O=C(CCN(CCO)CCO)c1ccsc1	13000 nM
O=C(CCN(CCO)Cc1ccccc1)c1csc(Cl)c1	2700 nM
CC(C)(C)N(CCC(=O)c1ccc(C#N)cc1)Cc1ccccc1	1700 nM
CCN(CCC(=O)c1cccnc1)Cc1ccccc1	1700 nM
CCc1nccnc1C(=O)CCN(CCO)Cc1ccccc1	18000 nM
CCc1nccnc1C(=O)CCN(CCO)C(C)C	7700 nM
CC(C)(C)N(CCO)CCC(=O)c1ccc(C#N)cc1	10000 nM
CC(C)N(CCO)CCC(=O)c1ccco1	120 nM
CC(C)N(CCC(=O)c1ccccc1)Cc1ccccc1	5600 nM
Cc1cnc(C(=O)CCN(Cc2ccccc2)C(C)C)s1	850 nM
O=C(CCN(CCO)CCO)c1cccs1	8300 nM
CCN(CCC(=O)c1ccc(Br)s1)Cc1ccccc1	610 nM
CC(C)N(CCC(=O)c1ccc(Cl)s1)Cc1ccccc1	230 nM
